Experimental findings from patent publication US20060270640A1, “Method of preventing, medicating, and/or treating hypocalcemia of domestic mammal” (Mercian Corporation, priority 2004, published 2006) are described below.

Data set [1] is described as follows: Intravaginal administration of VitAD3E to cows, biochemical changes in blood (Comparative Example 1). The following applies: intravaginal VitA 10,000,000 IU + VitD3 5,000,000 IU + VitE 920 IU in 8 mL with 20% ethanol per cow; two Holstein cows. Here is the method:
Vitamin A, vitamin D3, and vitamin E were administered to the vaginal cavities of cows to observe biochemical changes in blood after administration in the same manner as in Example 1 except that test drugs, test contents, and biochemical examination items of blood were as described in the following (1) to (3).
• Vitamin A (VitA; bulk for drug production, liquid); • Vitamin D3 (VitD3; bulk for drug production, liquid); and • Vitamin E (VitE; bulk for drug production, liquid). (2) Test Contents • VitAD3E test: intravaginal administration of VitA (10,000,000 IU)+VitD3 (5,000,000 IU)+VitE (920 IU) brought up to 8 mL per cow with 20% ethanol. (3) Biochemical Examination Items of Blood • Control test: VitA, 25-hydroxyvitamin D3 (25-OHD3), VitE, calcium (Ca), inorganic phosphorus (iP), and magnesium (Mg); and • VitAD3E test: VitA, 25-OHD3, and VitE.
The shifts of VitA, 25-OHD3, and VitE concentrations in blood by the intravaginal administration of VitAD3E were observed by the above-described procedure.

Data set [2] is classed as in vivo, cow. The following applies: intravaginal 1 μg/kg 1α-VD3; two Holstein cows. The text has this: Biochemical changes in blood were observed by administering 1α-hydroxyvitamin D3 to the vaginal cavities of cows.
Test animals used were two Holstein dairy cows (Cow A and Cow B) described below. During a test period, the cows were raised by the free grazing of hay (free water drinking) in a field paddock as well as feeding with 2 kg/day of formula feed (64.1% TDN, 13.6% CP, 0.2% Ca, 0.09% Mg, and 1.39% K in DM).
Cow A: 35months old, female, single birth, ovariectomized, 560 kg
Cow B: 34months old, female, single birth, ovariectomized, 580 kg
The following test drug was used: • 1α-hydroxyvitamin D3 (1α-VD3; manufactured by Nisshin Pharma Co., Ltd., powder).
Test contents and schedules were as follows: • 1. Control test: intravaginal administration of 4 mL of 20% ethanol (for 1 week); and • 2. 1α-VD3 test: intravaginal administration of 1 μg/kg (by body weight) of 1α-VD3 dissolved in 4 mL of 20% ethanol (for 2 weeks).
Intravaginal administration was performed by the following procedure:
The above-described reagent was prepared on ice water and then administered, with a 10-mL plastic syringe, to a deep region in the vagina of the test cows previously allowed to urinate and vulva skin was immediately closed with an instant adhesive.
In each test, blood was collected immediately before administration (0 hour) and at 0.5, 1, 2, 3, 6, 12, 24, 48, and 72 hours (hrs) after administration. […]

Consider `C=C1CC[C@H](O)C/C1=C/C=C1\CCC[C@]2(C)[C@@H]([C@H](C)CCCC(C)C)CC[C@@H]12` [vitamin D3, Vitamin D3], for which, in data set [1], the “intravaginal absorption of the drug” value is recorded as “No evidence that administered drugs were absorbed from the vaginal wall was confirmed”.
As to `C=C1/C(=C\C=C2/CCC[C@]3(C)[C@@H]([C@H](C)CCCC(C)C)CC[C@@H]23)C[C@@H](O)C[C@@H]1O` [1α-VD3, 1α-hydroxyvitamin D3], in data set [2], the “effect on Ca metabolism” value is given as “affecting Ca metabolism”.
In the case of Vitamin E, in data set [1], the “intravaginal absorption of the drug” value is reported as “No evidence that administered drugs were absorbed from the vaginal wall was confirmed”.
